Source: patent US11415579B2, “Assay for measuring a rate of reaction between a target and a ligand candidate” (Imperial College Innovations Ltd., priority 2016, dated 2022)

Legend:
[1] = Kinetic thiol consumption assay with model thiol glutathione; format: physicochemical; design: Rate constant with glutathione (k(GSH)): unit not given here; details: for Rate constant with glutathione (k(GSH)): 500 μM ligand, 5 μM thiol, phosphate buffer pH 8; for Rate constant with Glutathione: Protein: Glutathione, cysteine position NA, in h-1
In short: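 First, 5 μM glutathione in degassed phosphate buffer (pH 8) receives immobilized TCEP beads (2% v/v). Then acrylamide is added and plates incubate 1 h at room temperature. Finally, fluorescence (380/470 nm) is normalized and fitted to first-order decay for rate constants.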

[2] = biological target: T1, human cyclin-dependent kinase 2 (Cdk2) (Homo sapiens, UniProt P24941); assay: Kinetic thiol consumption assay with wild type Cdk2 (C177); format: binding; design: key to Rate enhancement, Cdk2 WT: k(Cdk2) divided by k(model thiol); Rate constant with Cdk2 (k(Cdk2)): unit not given here; details: for Rate constant with Cdk2 (k(Cdk2)): 500 μM ligand, 5 μM thiol, phosphate buffer pH 8; for Rate enhancement, Cdk2 WT: no additional mutations; for Rate constant with Cdk2 WT: Protein: Cdk2, cysteine position WT, in h^-1; for k(Cdk2)/k(Cdk2_mut) rate enhancement: model thiol Cdk2[C177A, F80C, K278C]; for k(Cdk2)/k(GSH) rate enhancement: model thiol glutathione
T1 construct: poly-histidine; made in house; host or cells: E. coli
In short: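 His-tagged human Cdk2 (single surface cysteine C177), expressed in E. coli, or a model thiol at 5 μM in degassed phosphate buffer pH 8 was pre-treated with immobilized TCEP beads (2% v/v) before acrylamide addition. Fluorescence (ex/em 380/470 nm) was read after 1 h at room temperature, normalized to DMSO/thiol-only control and plotted versus time.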

Cdk2[C177A, F80C, K278C] = biological target: T2, Cdk2[C177A, F80C, K278C] (Homo sapiens, UniProt P24941, C177A/F80C/K278C); assay: Kinetic thiol consumption assay with mutant Cdk2 as model thiol; format: binding; design: unit not given here; details: 500 μM ligand, 5 μM thiol, phosphate buffer pH 8
T2 construct: poly-histidine; made in house; host or cells: E. coli
In short: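 Model thiol: His-tagged human Cdk2 C177A/F80C/K278C (two engineered surface cysteines), E. coli-expressed, 5 μM in degassed phosphate buffer pH 8 with immobilized TCEP beads (2% v/v). Fluorescence (ex/em 380/470 nm) followed over time at room temperature, normalized to DMSO/thiol control. First-order decay fit gives rate constants.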

Cdk2(C177A, F80C) = biological target: T3, Cdk2(C177A, F80C) (Homo sapiens, UniProt P24941, C177A/F80C); assay: Kinetic thiol consumption assay with Cdk2 mutant F80C, incl. kobs versus concentration (Kd, k2); format: binding; design: key to Rate enhancement, Cdk2 F80C: Cdk2 rate constant divided by model-thiol rate constant; details: additional mutation C177A; for Rate constant with Cdk2 F80C: Protein: Cdk2, cysteine position F80C, in h^-1
T3 construct: poly-histidine; made in house; host or cells: E. coli
In short: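 His-tagged Cdk2(C177A/F80C) from E. coli or model thiol, 5 μM in degassed phosphate buffer pH 8 with TCEP beads, reacted with acrylamide ligands; fluorescence (ex/em 380/470 nm) normalized to DMSO control and fitted to first-order decay for kobs. Kd and k2 obtained from hyperbolic fit of kobs versus ligand concentration.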

Cdk2(H71C) (C177A) = biological target: T4, Cdk2(H71C) (C177A) (Homo sapiens, UniProt P24941, C177A/H71C); assay: Kinetic thiol consumption assay with Cdk2 mutant H71C; format: binding; design: key to Rate enhancement, Cdk2 H71C: rate constant with Cdk2 ÷ rate constant with model thiol (fold); details: additional mutation C177A; for Rate constant with Cdk2 H71C: Protein: Cdk2, cysteine position H71C, in h^-1
T4 construct: poly-histidine; made in house; host or cells: E. coli
In short: (§1)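 5 μM thiol, degassed phosphate pH 8, 2% v/v immobilized TCEP beads; 1 h RT; fluorescence ex 380/em 470 nm; normalized vs DMSO/thiol-only; first-order exponential decay fit → rate constant; Cdk2 k / model-thiol k = rate enhancement per acrylamide.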

Cdk2(S276C) (C177A) = biological target: T5, Cdk2(S276C) (C177A) (Homo sapiens, UniProt P24941, C177A/S276C); assay: Kinetic thiol consumption assay with Cdk2 mutant S276C; format: binding; design: key to Rate enhancement, Cdk2 S276C: rate constant with Cdk2 ÷ rate constant with model thiol (fold); details: additional mutation C177A; for Rate constant with Cdk2 S276C: Protein: Cdk2, cysteine position S276C, in h^-1
T5 construct: poly-histidine; made in house; host or cells: E. coli
In short: as §1

Cdk2(N272C) (C177A) = biological target: T6, Cdk2(N272C) (C177A) (Homo sapiens, UniProt P24941, C177A/N272C); assay: Kinetic thiol consumption assay with Cdk2 mutant N272C; format: binding; design: key to Rate enhancement, Cdk2 N272: rate constant with Cdk2 ÷ rate constant with model thiol (fold); details: for Rate enhancement, Cdk2 N272: Cdk2 N272, additional mutation C177A; for Rate constant with Cdk2 N272C: Protein: Cdk2, cysteine position N272C, additional mutation C177A, in h^-1
T6 construct: poly-histidine; made in house; host or cells: E. coli
In short: as §1

Cdk2(T182C) (C177A) = biological target: T7, Cdk2(T182C) (C177A) (Homo sapiens, UniProt P24941, C177A/T182C); assay: Kinetic thiol consumption assay with Cdk2 mutant T182C; format: binding; design: key to Rate enhancement, Cdk2 T182C: rate constant with Cdk2 ÷ rate constant with model thiol (fold); details: additional mutation C177A; for Rate constant with Cdk2 T182C: Protein: Cdk2, cysteine position T182C, in h^-1
T7 construct: poly-histidine; made in house; host or cells: E. coli
In short: as §1

Cdk2(R122C) (C177A) = biological target: T8, Cdk2(R122C) (C177A) (Homo sapiens, UniProt P24941, C177A/R122C); assay: Kinetic thiol consumption assay with Cdk2 mutant R122C; format: binding; design: key to Rate enhancement, Cdk2 R122C: rate constant with Cdk2 ÷ rate constant with model thiol (fold); details: additional mutation C177A; for Rate constant with Cdk2 R122C: Protein: Cdk2, cysteine position R122C, in h-1
T8 construct: poly-histidine; made in house; host or cells: E. coli
In short: as §1

Cdk2(S181C) (C177A) = biological target: T9, Cdk2(S181C) (C177A) (Homo sapiens, UniProt P24941, C177A/S181C); assay: Kinetic thiol consumption assay with Cdk2 mutant S181C; format: binding; design: key to Rate enhancement, Cdk2 S181C: rate constant with Cdk2 ÷ rate constant with model thiol (fold); details: additional mutation C177A; for Rate constant with Cdk2 S181C: Protein: Cdk2, cysteine position S181C, in h^-1
T9 construct: poly-histidine; made in house; host or cells: E. coli
In short: as §1

SMILES	Rate constant with glutathione (k(GSH)) [1]	Rate constant with Glutathione [1]	Rate constant with Cdk2 (k(Cdk2)) [2]	Rate enhancement, Cdk2 WT [2]	Rate constant with Cdk2 WT [2]	k(Cdk2)/k(Cdk2_mut) rate enhancement [2]	k(Cdk2)/k(GSH) rate enhancement [2]	Rate constant with Cdk2[C177A, F80C, K278C] (k(Cdk2_mut)) (Cdk2[C177A, F80C, K278C])	Rate enhancement, Cdk2 F80C (Cdk2(C177A, F80C))	Rate constant with Cdk2 F80C (Cdk2(C177A, F80C))	Rate enhancement, Cdk2 H71C (Cdk2(H71C) (C177A))	Rate enhancement, Cdk2 S276C (Cdk2(S276C) (C177A))	Rate constant with Cdk2 S276C (Cdk2(S276C) (C177A))	Rate enhancement, Cdk2 N272 (Cdk2(N272C) (C177A))	Rate constant with Cdk2 N272C (Cdk2(N272C) (C177A))	Rate enhancement, Cdk2 T182C (Cdk2(T182C) (C177A))	Rate constant with Cdk2 T182C (Cdk2(T182C) (C177A))	Rate enhancement, Cdk2 R122C (Cdk2(R122C) (C177A))	Rate constant with Cdk2 R122C (Cdk2(R122C) (C177A))	Rate enhancement, Cdk2 S181C (Cdk2(S181C) (C177A))	other results
C=CC(=O)N(Cc1ccco1)Cc1cc2cc(C)ccc2o1 [CA-178]	0.1415	0.1581	0.1507	0.9532	0.1507	0.2468	1.065	0.6107	1.581	0.2499	5.546	2.953	0.4669	3.356	0.5306	2.909	0.4599	1.616	0.2555	0.8912	Rate constant with Cdk2 H71C (Cdk2(H71C) (C177A)): 0.8769; Rate constant with Cdk2 S181C (Cdk2(S181C) (C177A)): 0.1409
C=CC(=O)N1CCN(c2ccccc2C(N)=O)CC1 [EL-1155]	0.00836	0.01124	0.00466	0.4144	0.004658	1.221	0.5575	0.00382	0.3142	0.003532	0.4653	1.346	0.01513	1.099	0.01235	2.129	0.02393	0.5734	0.006445	0.5376	Rate constant with Cdk2 H71C (Cdk2(H71C) (C177A)): 0.00523; Rate constant with Cdk2 S181C (Cdk2(S181C) (C177A)): 0.006043
C=CC(=O)N1CCOC2(CCCCC2)C1 [CA-193]	0.02378	0.02785	0.02444	0.8776	0.02444	2.308	1.028	0.01059	1.419	0.03952	1.842	1.379	0.03841	0.8528	0.02375	3.878	0.108	0.6093	0.01697	0.4083	Rate constant with Cdk2 H71C (Cdk2(H71C) (C177A)): 0.05131; Rate constant with Cdk2 S181C (Cdk2(S181C) (C177A)): 0.01137
C=CC(=O)NC1CC(NC(=O)C2CCC2)C1 (stereo not drawn) [CA-202]	0.00506	0.007805	0.00543	1.211	0.009448	4.114	1.074	0.00132	0.2601	0.00203	0	0.3503	0.002734	0.6405	0.004999	2.301	0.01796	0.2272	0.001773	1.095	Rate constant with Cdk2 S181C (Cdk2(S181C) (C177A)): 0.008545
